Measured values reported in the supplement of paper PMC10307832.

Tests used:
Experiment in all cases: relative viability (nuclei count vs DMSO), 5 days (fraction); higher = more cells survive
FG-4592 + Dasatinib = compound: Cc1nc(C(=O)NCC(=O)O)c(O)c2ccc(Oc3ccccc3)cc12 [FG-4592] + Cc1nc(Nc2ncc(C(=O)Nc3c(C)cccc3Cl)s2)cc(N2CCN(CCO)CC2)n1 [Dasatinib] (partner 0.075 µM)
Procedure, shortened: (§1)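 Each reported value is a median over duplicate plates. It expresses relative viability: treated-well nuclei count divided by vehicle-well nuclei count. Lung cancer cell lines in 1536-well plates were dosed by pin tool a day after seeding, alone with one drug or with a fixed anchor-drug dose plus five library-drug doses (not always all listed) in √10 steps, and nuclei were counted after 5 days.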

IU1-47 + Navitoclax = compound: CC1=CC(=C(N1C2=CC=C(C=C2)Cl)C)C(=O)CN3CCCCC3 [IU1-47] + CC1(C)CCC(c2ccc(Cl)cc2)=C(CN2CCN(c3ccc(C(=O)NS(=O)(=O)c4ccc(N[C@H](CCN5CCOCC5)CSc5ccccc5)c(S(=O)(=O)C(F)(F)F)c4)cc3)CC2)C1 [Navitoclax] (partner 0.5 µM)
Procedure, shortened: as §1

IU1-47 + Lapatinib = compound: CC1=CC(=C(N1C2=CC=C(C=C2)Cl)C)C(=O)CN3CCCCC3 [IU1-47] + CS(=O)(=O)CCNCc1ccc(-c2ccc3ncnc(Nc4ccc(OCc5cccc(F)c5)c(Cl)c4)c3c2)o1 [Lapatinib] (partner 2 µM)
Procedure, shortened: as §1

FG-4592 + Luminespib = compound: Cc1nc(C(=O)NCC(=O)O)c(O)c2ccc(Oc3ccccc3)cc12 [FG-4592] + CCNC(=O)c1noc(-c2cc(C(C)C)c(O)cc2O)c1-c1ccc(CN2CCOCC2)cc1 [Luminespib] (partner 0.01 µM)
Procedure, shortened: as §1

| Cell Line | relative viability (FG-4592 + Dasatinib; first compound 0.08 µM) | relative viability (FG-4592 + Dasatinib; first compound 0.253 µM) | relative viability (FG-4592 + Dasatinib; first compound 0.8 µM) | relative viability (FG-4592 + Dasatinib; first compound 2.53 µM) | relative viability (FG-4592 + Dasatinib; first compound 8 µM) | relative viability (IU1-47 + Navitoclax; first compound 0.08 µM) | relative viability (IU1-47 + Navitoclax; first compound 0.253 µM) | relative viability (IU1-47 + Navitoclax; first compound 0.8 µM) | relative viability (IU1-47 + Navitoclax; first compound 8 µM) | relative viability (IU1-47 + Lapatinib; first compound 0.08 µM) | relative viability (IU1-47 + Lapatinib; first compound 0.253 µM) | relative viability (IU1-47 + Lapatinib; first compound 0.8 µM) | relative viability (IU1-47 + Lapatinib; first compound 8 µM) | relative viability (FG-4592 + Luminespib; first compound 0.08 µM) | relative viability (FG-4592 + Luminespib; first compound 0.253 µM) | relative viability (FG-4592 + Luminespib; first compound 0.8 µM) | relative viability (FG-4592 + Luminespib; first compound 2.53 µM) | relative viability (FG-4592 + Luminespib; first compound 8 µM) | relative viability (IU1-47 + Navitoclax; first compound 2.53 µM) | relative viability (IU1-47 + Lapatinib; first compound 2.53 µM) |
| --- | --- | --- | --- | --- | --- | --- | --- | --- | --- | --- | --- | --- | --- | --- | --- | --- | --- | --- | --- | --- |
| PC-3 [JPC-3] | 1.04 | 0.92 | 0.896 | 1.05 | 0.954 | 0.834 | 0.817 | 0.804 | 0.788 | 0.47 | 0.46 | 0.509 | 0.461 | 0.735 | 0.639 | 0.817 | 0.798 | 0.575 | – | – |
| NCI-H2228 | 0.569 | 0.411 | 0.548 | 0.475 | 0.489 | 0.871 | 0.97 | 1.69 | 0.832 | 0.974 | 0.885 | 1.19 | 0.734 | 0.151 | 0.181 | 0.174 | 0.113 | 0.16 | 0.659 | 0.833 |
| HOP-62 | 0.637 | 0.569 | 0.567 | 0.642 | 0.628 | 1.05 | 0.962 | 1.12 | 1.21 | 1.14 | 1.01 | 1.12 | 0.954 | 0.88 | 0.871 | 0.993 | 0.902 | 0.962 | 0.897 | 0.844 |
| HARA | 0.272 | 0.208 | 0.266 | 0.24 | 0.234 | 1.16 | 1.19 | 1.19 | 0.998 | 0.849 | 0.817 | 0.884 | 0.563 | 0.73 | 0.787 | 0.834 | 0.621 | 0.709 | 1.2 | 0.694 |
